GI50 and IC50 data for 14 molecules are collected here from patent US20260167619A2, “INDOLINE COMPOUNDS AND DERIVATIVES AS EGFR INHIBITORS” (BeOne Medicines I GmbH, priority 2020, published 2026).

By IC50 is commonly meant the concentration needed to halve the response being measured.

The structures appear in SMILES notation.

For one test, the target named is BaF3-Del_TM_CS cells (Homo sapiens, UniProt P00533, T790M/C797S, cells depend on it, form not given). Kind of test: Cell antiproliferation assay (CellTiter-Glo), BaF3-Del_TM_CS. The format is cell-based. Particulars: 48 h treatment, read-out: BaF3-Del_TM_CS IC50. In outline: (§1)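 Cells exposed 48 h to 8 doses from 5-fold serial dilution (500× DMSO stocks from 5 mM), final 0.2% DMSO. Viability by CellTiter-Glo luminescence; IC50 from four-parameter fit of percent inhibition versus concentration.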
In general terms: ATP-based viability assays read luminescence as a measure of living cells.

Test [1] deals with T1, EGFR (aa668-1210, Invitrogen) (Homo sapiens, UniProt P00533).
T1 construct: EGFR (aa668-1210, Invitrogen); purchased Invitrogen
Kind of test: Biochemical EGFR inhibition assay (TR-FRET), wild-type EGFR. Particulars: ATP at Km, 15 min pre-incubation, 60 min reaction; read-out: WT (Km ATP) IC50. In a few lines: (§2)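 Recombinant kinase pre-incubated with compound 15 min at room temperature in 50 mM HEPES pH7.5, 10 mM MgCl2, 2 mM DTT, 1 mM EGTA, 0.1% BSA, 0.01% Tween-20; reaction started with ATP at Km plus biotin-poly GT, run 60 min at RT. HTRF read (665/620 nm); IC50 from four-parameter logistic fit.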
A general note: Time-resolved FRET reads energy transfer from a long-lived donor to a nearby acceptor.

For test [2], the target named is EGFR(Dell9_T790M_C797S) (aa 669-1210, in house) (Homo sapiens, UniProt P00533, T790M/C797S, form not given). The test is described as follows: Biochemical EGFR inhibition assay (TR-FRET), Del19/T790M/C797S mutant. Particulars: ATP at Km, 15 min pre-incubation, 60 min reaction; read-out: Del_TM_CS (Km ATP) IC50. In outline:
as §2

Test [3] has as its target T2, EGFR(L858R_T790M_C797S) (aa695-end, Invitrogen) (Homo sapiens, UniProt P00533, C797S/L858R/T790M).
T2 construct: purchased Invitrogen
Kind of test: Biochemical EGFR inhibition assay (TR-FRET), L858R/T790M/C797S mutant. To be noted: ATP at Km, 15 min pre-incubation, 60 min reaction; read-out: LR_TM_CS (Km ATP) IC50. In a few lines:
as §2

For a further test, the target named is BaF3-WT cells (Homo sapiens, UniProt P00533). Kind of test: Cell antiproliferation assay (CellTiter-Glo), BaF3-WT. The test is classed as cell-based. Particulars: 48 h treatment, read-out: BaF3-WT IC50. In a few lines: as §1
The next test has as its target BaF3-LR_TM_CS cells (Homo sapiens, UniProt P00533, T790M/C797S/L858R, cells depend on it). Kind of test: Cell antiproliferation assay (CellTiter-Glo), BaF3-LR_TM_CS. Particulars: 48 h treatment, read-out: BaF3-LR_TM_CS IC50. The format is cell-based. In outline: as §1

Sequence of BaF3-WT cells (P00533 whole entry, stated change not applied): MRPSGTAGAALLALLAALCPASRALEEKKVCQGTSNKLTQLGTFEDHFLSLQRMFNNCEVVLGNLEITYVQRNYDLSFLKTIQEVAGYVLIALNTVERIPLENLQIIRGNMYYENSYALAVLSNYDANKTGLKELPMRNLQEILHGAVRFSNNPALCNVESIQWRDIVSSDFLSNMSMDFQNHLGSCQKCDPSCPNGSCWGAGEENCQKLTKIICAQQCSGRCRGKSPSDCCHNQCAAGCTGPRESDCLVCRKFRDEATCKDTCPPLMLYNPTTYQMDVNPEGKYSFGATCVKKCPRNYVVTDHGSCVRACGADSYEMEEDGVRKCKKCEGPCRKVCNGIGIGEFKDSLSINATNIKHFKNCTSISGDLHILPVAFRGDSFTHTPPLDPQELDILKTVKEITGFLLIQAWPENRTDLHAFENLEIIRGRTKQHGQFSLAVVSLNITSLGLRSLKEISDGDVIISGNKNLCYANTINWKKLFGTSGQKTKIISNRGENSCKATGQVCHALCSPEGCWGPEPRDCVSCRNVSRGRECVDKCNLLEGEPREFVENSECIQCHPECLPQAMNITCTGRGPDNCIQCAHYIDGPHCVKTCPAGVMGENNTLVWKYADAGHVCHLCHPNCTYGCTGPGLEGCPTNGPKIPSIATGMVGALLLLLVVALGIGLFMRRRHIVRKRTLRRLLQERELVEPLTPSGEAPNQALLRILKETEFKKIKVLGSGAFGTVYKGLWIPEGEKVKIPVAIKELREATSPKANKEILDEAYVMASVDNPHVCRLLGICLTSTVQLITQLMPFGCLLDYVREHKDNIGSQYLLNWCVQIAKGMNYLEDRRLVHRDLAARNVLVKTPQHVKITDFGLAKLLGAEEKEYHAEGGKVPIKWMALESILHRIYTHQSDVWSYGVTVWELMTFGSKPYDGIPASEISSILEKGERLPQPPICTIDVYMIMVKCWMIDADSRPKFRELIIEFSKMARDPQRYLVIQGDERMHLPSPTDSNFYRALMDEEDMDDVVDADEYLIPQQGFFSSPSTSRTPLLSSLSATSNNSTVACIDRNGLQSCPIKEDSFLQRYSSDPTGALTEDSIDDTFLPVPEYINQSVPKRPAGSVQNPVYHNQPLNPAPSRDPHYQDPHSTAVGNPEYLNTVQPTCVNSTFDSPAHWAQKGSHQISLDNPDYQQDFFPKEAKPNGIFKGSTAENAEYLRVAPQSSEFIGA
T1 sequence (P00533 668-1210): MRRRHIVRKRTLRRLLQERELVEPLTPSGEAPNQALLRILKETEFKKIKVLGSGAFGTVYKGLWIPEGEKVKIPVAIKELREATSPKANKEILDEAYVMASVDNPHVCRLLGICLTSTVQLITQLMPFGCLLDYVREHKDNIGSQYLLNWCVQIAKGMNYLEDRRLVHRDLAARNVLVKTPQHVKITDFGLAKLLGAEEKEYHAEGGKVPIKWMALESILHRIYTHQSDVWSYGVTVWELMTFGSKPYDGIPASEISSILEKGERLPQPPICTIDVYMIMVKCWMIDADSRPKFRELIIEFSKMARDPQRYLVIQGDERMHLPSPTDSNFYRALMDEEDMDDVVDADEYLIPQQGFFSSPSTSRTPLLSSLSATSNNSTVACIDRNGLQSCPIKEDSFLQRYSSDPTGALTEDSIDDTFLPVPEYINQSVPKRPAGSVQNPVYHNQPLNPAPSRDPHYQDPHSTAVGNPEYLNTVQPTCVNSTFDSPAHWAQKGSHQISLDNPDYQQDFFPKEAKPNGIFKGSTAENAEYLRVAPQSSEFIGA
Sequence of BaF3-Del_TM_CS cells (P00533 with tags, fused parts or gaps DEL746-750/T790M/C797S, form open): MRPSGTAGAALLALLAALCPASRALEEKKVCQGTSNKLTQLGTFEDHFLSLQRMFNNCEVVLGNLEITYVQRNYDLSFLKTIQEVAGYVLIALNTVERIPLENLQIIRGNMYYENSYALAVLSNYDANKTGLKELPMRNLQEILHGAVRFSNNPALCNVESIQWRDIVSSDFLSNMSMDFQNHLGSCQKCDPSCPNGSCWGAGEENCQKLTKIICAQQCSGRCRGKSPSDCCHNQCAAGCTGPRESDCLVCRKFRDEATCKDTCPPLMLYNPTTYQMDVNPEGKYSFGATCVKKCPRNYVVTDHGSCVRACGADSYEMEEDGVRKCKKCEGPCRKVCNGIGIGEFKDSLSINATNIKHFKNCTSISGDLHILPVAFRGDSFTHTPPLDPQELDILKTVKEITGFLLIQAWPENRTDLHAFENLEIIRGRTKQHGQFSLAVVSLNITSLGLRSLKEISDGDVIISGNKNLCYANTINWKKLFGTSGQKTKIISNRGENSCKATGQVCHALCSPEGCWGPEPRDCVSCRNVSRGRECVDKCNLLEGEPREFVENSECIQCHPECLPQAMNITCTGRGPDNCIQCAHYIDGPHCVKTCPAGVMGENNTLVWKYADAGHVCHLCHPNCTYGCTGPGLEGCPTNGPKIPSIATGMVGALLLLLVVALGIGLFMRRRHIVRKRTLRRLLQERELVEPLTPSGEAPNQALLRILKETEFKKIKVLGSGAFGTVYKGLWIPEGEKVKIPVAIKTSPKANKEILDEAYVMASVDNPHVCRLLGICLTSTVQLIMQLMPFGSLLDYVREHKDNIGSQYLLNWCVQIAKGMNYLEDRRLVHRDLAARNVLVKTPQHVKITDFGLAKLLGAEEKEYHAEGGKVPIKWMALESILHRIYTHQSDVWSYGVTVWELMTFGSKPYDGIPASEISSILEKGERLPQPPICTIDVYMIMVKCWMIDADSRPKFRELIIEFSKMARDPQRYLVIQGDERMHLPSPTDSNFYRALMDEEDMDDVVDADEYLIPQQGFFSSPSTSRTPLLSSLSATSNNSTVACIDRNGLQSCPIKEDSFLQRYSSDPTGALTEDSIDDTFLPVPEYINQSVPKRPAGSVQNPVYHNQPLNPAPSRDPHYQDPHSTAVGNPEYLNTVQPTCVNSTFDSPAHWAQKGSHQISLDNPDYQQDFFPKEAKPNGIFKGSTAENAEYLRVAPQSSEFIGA
Sequence of EGFR(Dell9_T790M_C797S) (aa 669-1210, in house) (P00533 with tags, fused parts or gaps DEL746-750/T790M/C797S, form open): as above
T2 sequence (P00533 695-1210 T790M/C797S/L858R): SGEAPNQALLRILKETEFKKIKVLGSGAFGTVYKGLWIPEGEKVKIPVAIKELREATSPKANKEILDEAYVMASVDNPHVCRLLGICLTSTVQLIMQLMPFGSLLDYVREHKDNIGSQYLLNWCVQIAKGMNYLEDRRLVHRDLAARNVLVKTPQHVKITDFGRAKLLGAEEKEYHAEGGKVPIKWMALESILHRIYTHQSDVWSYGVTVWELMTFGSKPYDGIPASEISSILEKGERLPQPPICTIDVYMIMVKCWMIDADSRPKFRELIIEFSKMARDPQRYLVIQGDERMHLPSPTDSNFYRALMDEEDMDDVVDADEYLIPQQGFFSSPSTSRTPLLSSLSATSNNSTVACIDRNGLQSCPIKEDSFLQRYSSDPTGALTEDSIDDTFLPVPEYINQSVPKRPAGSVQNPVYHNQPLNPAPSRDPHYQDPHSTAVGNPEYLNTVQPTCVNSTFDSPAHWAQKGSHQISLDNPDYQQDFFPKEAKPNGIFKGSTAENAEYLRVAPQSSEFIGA

In the case of `COc1cc(N2CCC(N3CCN(C)CC3)CC2)ccc1Nc1nc(Nc2cccc3c2N(S(C)(=O)=O)CC3)c2[nH]ccc2n1` [Example 71, N^2-(2-methoxy-4-(4-(4-methylpiperazin-1-yl)piperidin-1-yl)phenyl)-N^4-(1-(methylsulfonyl)indolin-7-yl)-5H-pyrrolo[3,2-d]pyrimidine-2,4-diamine], the GI50 came out at 920 nM at BaF3-Del_TM_CS cells, 2210 nM at BaF3-WT cells and 1470 nM at BaF3-LR_TM_CS cells. Moreover, the IC50 came to 623 nM in test [1], 133 nM in test [2] and 143 nM in test [3].

As to `COc1cc(N2CCC(N3CCN(C)CC3)CC2)ccc1Nc1nc(Nc2cccc3c2N(S(C)(=O)=O)CC3)c2nc[nH]c2n1` [Example 72, N^2-(2-methoxy-4-(4-(4-methylpiperazin-1-yl)piperidin-1-yl)phenyl)-N^6-(1-(methylsulfonyl)indolin-7-yl)-9H-purine-2,6-diamine], the GI50 on BaF3-Del_TM_CS cells was 246 nM; on BaF3-WT cells it was 2600 nM; on BaF3-LR_TM_CS cells, 2200 nM. For the same molecule, the results for the 50% inhibitory concentration (IC50) in test [1], in test [2] and in test [3] were 3.1 nM, 1.3 nM and 1.4 nM, respectively.

`COc1cc(N2CCC(N3CCN(C)CC3)CC2)ccc1Nc1nc(Nc2cccc3c2N(S(C)(=O)=O)CC3)c2c(Cl)c[nH]c2n1` [Example 73, 5-chloro-N^2-(2-methoxy-4-(4-(4-methylpiperazin-1-yl)piperidin-1-yl)phenyl)-N^4-(1-(methylsulfonyl)indolin-7-yl)-7H-pyrrolo[2,3-d]pyrimidine-2,4-diamine]: the GI50 was 27.4 nM at BaF3-Del_TM_CS cells, 853 nM at BaF3-WT cells and 141 nM on BaF3-LR_TM_CS cells. In addition, the figures for the IC50 in test [1], in test [2] and in test [3] were 4.7 nM, 1.6 nM and 0.61 nM, respectively.

As to `COc1cc(N2CCC(N3CCN(C)CC3)CC2)ccc1Nc1nc2c(c(Nc3cccc4c3N(S(C)(=O)=O)CC4)n1)CCC2` [Example 74, N^2-(2-methoxy-4-(4-(4-methylpiperazin-1-yl)piperidin-1-yl)phenyl)-N^4-(1-(methylsulfonyl)indolin-7-yl)-6,7-dihydro-5H-cyclopenta[d]pyrimidine-2,4-diamine], the values for the GI50 on BaF3-Del_TM_CS cells, at BaF3-WT cells and on BaF3-LR_TM_CS cells were 436 nM, 2350 nM and 617 nM, respectively. The figures for the IC50 in test [1], in test [2] and in test [3] were 525 nM, 131 nM and 53 nM, respectively.

Take `COc1cc(N2CCC(N3CCN(C)CC3)CC2)ccc1Nc1nc(Nc2cccc3c2N(S(C)(=O)=O)CC3)c2sccc2n1` [Example 75, N^2-(2-methoxy-4-(4-(4-methylpiperazin-1-yl)piperidin-1-yl)phenyl)-N^4-(1-(methylsulfonyl)indolin-7-yl)thieno[3,2-d]pyrimidine-2,4-diamine]: the GI50 at BaF3-Del_TM_CS cells turned out to be 349 nM; at BaF3-WT cells, 1200 nM; at BaF3-LR_TM_CS cells, 459 nM. The half-inhibitory concentration (IC50) in test [1] worked out at 148 nM; in test [2], 8.8 nM; in test [3], 8.6 nM.

For the molecule `CCN1CCN(C2CCN(c3ccc(Nc4nc(Nc5cccc6c5N(S(C)(=O)=O)CC6)c5cn[nH]c5n4)cc3F)CC2)CC1` [Example 76, N^6-(4-(4-(4-ethylpiperazin-1-yl)piperidin-1-yl)-3-fluorophenyl)-N^4-(1-(methylsulfonyl)indolin-7-yl)-1H-pyrazolo[3,4-d]pyrimidine-4,6-diamine], the GI50 was 90.5 nM at BaF3-Del_TM_CS cells, 987 nM on BaF3-WT cells and 350 nM on BaF3-LR_TM_CS cells. Moreover, the IC50 in test [1] is 0.6 nM; in test [2] it was 0.88 nM; in test [3], 1.3 nM.

As for `CCN1CCN(C2CCN(c3ccc(Nc4nc(Nc5cccc6c5N(S(C)(=O)=O)CC6)c5cc[nH]c5n4)cc3F)CC2)CC1` [Example 77, N^2-(4-(4-(4-ethylpiperazin-1-yl)piperidin-1-yl)-3-fluorophenyl)-N^4-(1-(methylsulfonyl)indolin-7-yl)-7H-pyrrolo[2,3-d]pyrimidine-2,4-diamine], the results for the GI50 on BaF3-Del_TM_CS cells, at BaF3-WT cells and at BaF3-LR_TM_CS cells were 8.3 nM, 388 nM and 62 nM, respectively. Further, the concentration for half-maximal inhibition (IC50) in test [1] stood at 18 nM; in test [2] it was 0.33 nM; in test [3], 0.29 nM.

On to `CCN1CCN(C2CCN(c3ccc(Nc4nc(Nc5ccc(F)c6c5N(S(C)(=O)=O)CC65CCC5)c5cc[nH]c5n4)cc3F)CC2)CC1` [Example 83, N^2-(4-(4-(4-ethylpiperazin-1-yl)piperidin-1-yl)-3-fluorophenyl)-N^4-(4′-fluoro-1′-(methylsulfonyl)spiro[cyclobutane-1,3′-indolin]-7′-yl)-7H-pyrrolo[2,3-d]pyrimidine-2,4-diamine], for which the GI50 at BaF3-Del_TM_CS cells was 707 nM; on BaF3-WT cells, 1860 nM; on BaF3-LR_TM_CS cells, 1040 nM. Also, the concentration for half-maximal inhibition (IC50) in test [1] was determined as 7290 nM; in test [2], 37 nM; in test [3], 42 nM.

`CN1CCN(c2ccc(Nc3nc(Nc4cccc5c4N(S(C)(=O)=O)CC5)c4cc[nH]c4n3)cc2F)CC1` [Example 84, N^2-(3-fluoro-4-(4-methylpiperazin-1-yl)phenyl)-N^4-(1-(methylsulfonyl)indolin-7-yl)-7H-pyrrolo[2,3-d]pyrimidine-2,4-diamine]: the GI50 on BaF3-Del_TM_CS cells was 10.7 nM; at BaF3-WT cells it was 335 nM; on BaF3-LR_TM_CS cells it was 78 nM. Further, the IC50 in test [1] was determined as 150 nM; in test [2], 1.6 nM; in test [3], 1.5 nM.

`CN1CCN(c2ccc(Nc3nc(Nc4cccc5c4N(S(C)(=O)=O)CC5)c4cc[nH]c4n3)c(F)c2F)CC1` [Example 85, N^2-(2,3-difluoro-4-(4-methylpiperazin-1-yl)phenyl)-N^4-(1-(methylsulfonyl)indolin-7-yl)-7H-pyrrolo[2,3-d]pyrimidine-2,4-diamine]: the values for the GI50 on BaF3-Del_TM_CS cells, at BaF3-WT cells and on BaF3-LR_TM_CS cells were 91.6 nM, 274 nM and 141 nM, respectively. Moreover, the IC50 amounted to 1300 nM in test [1], 15 nM in test [2] and 8.9 nM in test [3].

Take `COc1cc(N2CCC(N3CCN(C)CC3)CC2)ccc1Nc1nc(Nc2cccc3c2N(S(C)(=O)=O)CC3)c2cc[nH]c2n1` [Example 90, N^2-(2-methoxy-4-(4-(4-methylpiperazin-1-yl)piperidin-1-yl)phenyl)-N^4-(1-(methylsulfonyl)indolin-7-yl)-7H-pyrrolo[2,3-d]pyrimidine-2,4-diamine]: the values for the GI50 at BaF3-Del_TM_CS cells, at BaF3-WT cells and at BaF3-LR_TM_CS cells were 87.5 nM, 2560 nM and 191 nM, respectively. The values for the IC50 in test [1], in test [2] and in test [3] were 44 nM, 1.5 nM and 1.04 nM, respectively.

Consider `COc1cc(N2CCC(N3CCN(C)CC3)CC2)c(C)cc1Nc1nc(Nc2cccc3c2N(S(C)(=O)=O)CC3)c2cc[nH]c2n1` [Example 91, N^2-(2-methoxy-5-methyl-4-(4-(4-methylpiperazin-1-yl)piperidin-1-yl)phenyl)-N^4-(1-(methylsulfonyl)indolin-7-yl)-7H-pyrrolo[2,3-d]pyrimidine-2,4-diamine], for which the GI50 at BaF3-Del_TM_CS cells was 12.8 nM; on BaF3-WT cells, 949 nM; on BaF3-LR_TM_CS cells, 40.5 nM. In addition, the IC50 was 17 nM in test [1], 0.94 nM in test [2] and 0.42 nM in test [3].

For `Cc1cc(Nc2nc(Nc3cccc4c3N(S(C)(=O)=O)CC4)c3cc[nH]c3n2)c(OC(C)C)cc1N1CCC(N2CCN(C)CC2)CC1` [Example 92, N^2-(2-isopropoxy-5-methyl-4-(4-(4-methylpiperazin-1-yl)piperidin-1-yl)phenyl)-N^4-(1-(methylsulfonyl)indolin-7-yl)-7H-pyrrolo[2,3-d]pyrimidine-2,4-diamine], the GI50 at BaF3-Del_TM_CS cells turned out to be 225 nM; at BaF3-WT cells, 1400 nM; on BaF3-LR_TM_CS cells, 504 nM. Moreover, the results for the half-inhibitory concentration (IC50) in test [1], in test [2] and in test [3] were 1530 nM, 14 nM and 17 nM, respectively.

For `CCOc1cc(N2CCC(N3CCN(C)CC3)CC2)c(C)cc1Nc1nc(Nc2cccc3c2N(S(C)(=O)=O)CC3)c2cc[nH]c2n1` [Example 93, N^2-(2-ethoxy-5-methyl-4-(4-(4-methylpiperazin-1-yl)piperidin-1-yl)phenyl)-N^4-(1-(methylsulfonyl)indolin-7-yl)-7H-pyrrolo[2,3-d]pyrimidine-2,4-diamine], the figures for the GI50 at BaF3-Del_TM_CS cells, on BaF3-WT cells and on BaF3-LR_TM_CS cells were 54.1 nM, 1520 nM and 218 nM, respectively. Besides, the IC50 came out at 110 nM in test [1], 2.6 nM in test [2] and 1.5 nM in test [3].
